Source: ChEMBL document CHEMBL1201862, “PubChem BioAssay data set” (2004)
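Step 1: Grow cells in 96-well plates. Step 2: Expose to compound for 48 hours at 5 concentrations. Step 3: Interpolate endpoints linearly; if unreached, use highest concentration. GI50 marks 50% less growth.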 Active and inactive are the calls of the source. Rule as the data show it: active = GI50 up to about 1.1 µM and inactive = higher.

Experiments:
Assay in all cases: NCI anticancer screen, dose series, 48 h
UACC-62 = system: UACC-62
HL-60 = system: HL-60
SF-539 = system: SF-539
ACHN = system: ACHN
RXF 393 = system: RXF 393
EKVX = system: EKVX
LOX IMVI = system: LOX IMVI
NCI-H522 = system: NCI-H522
HOP-62 = system: HOP-62
SNB-75 = system: SNB-75
HCC 2998 = system: HCC 2998
OVCAR-4 = system: OVCAR-4
SNB-19 = system: SNB-19
NCI-H226 = system: NCI-H226
SF-295 = system: SF-295

Measured: GI50

O=[PH](O)c1ccsc1
inactive: UACC-62 > 100 µM | HL-60 > 100 µM | SF-539 > 100 µM | ACHN > 100 µM | RXF 393 > 100 µM | EKVX > 100 µM | LOX IMVI > 100 µM | NCI-H522 > 100 µM | HOP-62 > 100 µM

CNC(=O)CN(CC(N)=O)C(=O)NC
inactive: UACC-62 > 100 µM | HL-60 > 100 µM | SF-539 > 100 µM | ACHN > 100 µM | RXF 393 > 100 µM | EKVX > 100 µM | LOX IMVI > 100 µM | NCI-H522 > 100 µM | SNB-75 > 100 µM | HCC 2998 > 100 µM | OVCAR-4 > 100 µM | SNB-19 > 100 µM | NCI-H226 > 100 µM | SF-295 > 100 µM | HOP-62 > 100 µM

C=C1C(C(=O)O)C1C(=O)O (configuration not stated)
inactive: UACC-62 > 100 µM | HL-60 > 100 µM | SF-539 > 100 µM | ACHN > 100 µM | RXF 393 > 100 µM | EKVX > 100 µM | LOX IMVI > 100 µM | NCI-H522 > 100 µM | SNB-75 > 100 µM | HCC 2998 > 100 µM | OVCAR-4 > 100 µM | SNB-19 > 100 µM | NCI-H226 21.1 µM | SF-295 > 100 µM | HOP-62 > 100 µM

Cc1ccc(S(=O)(=O)n2c(-c3ccccc3)c(-c3ccccc3)c3ccccc32)cc1
inactive: UACC-62 > 100 µM | HL-60 > 100 µM | SF-539 > 100 µM | ACHN > 100 µM | RXF 393 > 100 µM | EKVX > 100 µM | LOX IMVI > 100 µM | NCI-H522 > 100 µM | SNB-75 > 100 µM | HCC 2998 > 100 µM | OVCAR-4 > 100 µM | SNB-19 > 100 µM | NCI-H226 > 100 µM | SF-295 97.5 µM | HOP-62 > 100 µM

CCOc1cc(/C=C/C=C/C=C/c2ccc(N(C)C)cc2)[s+]c2ccccc12
inactive: UACC-62 27.8 µM | HL-60 1.72 µM | SF-539 18.2 µM | ACHN 35.6 µM | RXF 393 10 µM | EKVX > 100 µM | NCI-H522 4.56 µM | SNB-75 32 µM | HCC 2998 48.2 µM | OVCAR-4 19.3 µM | SNB-19 24.1 µM | NCI-H226 11.1 µM | SF-295 33.8 µM | HOP-62 95.5 µM

O=C1NCCS(=O)(=O)N2CCC[C@@H]12
inactive: UACC-62 > 100 µM | HL-60 > 100 µM | SF-539 > 100 µM | ACHN > 100 µM | RXF 393 > 100 µM | EKVX > 100 µM | LOX IMVI > 100 µM | NCI-H522 > 100 µM | SNB-75 > 100 µM | HCC 2998 > 100 µM | OVCAR-4 > 100 µM | SNB-19 > 100 µM | NCI-H226 60.3 µM | SF-295 > 100 µM | HOP-62 > 100 µM

CC(C)CC(NC(=O)OC(C)(C)C)C(=O)Nc1ccc(Nc2nc(F)nc(-c3c4ccccc4c4n3CCS4)n2)cc1 (configuration not stated)
inactive: UACC-62 17.2 µM | HL-60 21.9 µM | SF-539 20.6 µM | ACHN 24.3 µM | RXF 393 34 µM | EKVX 19.7 µM | NCI-H522 15.3 µM | SNB-75 22.2 µM | HCC 2998 18 µM | SNB-19 18.2 µM | SF-295 20.9 µM | HOP-62 21.2 µM

COc1ccc2c(c1)CCN1C3=C(CCC3)C(=O)C[C@@H]21
inactive: UACC-62 > 100 µM | HL-60 23.2 µM | SF-539 > 100 µM | ACHN > 100 µM | RXF 393 > 100 µM | EKVX > 100 µM | LOX IMVI > 100 µM | NCI-H522 > 100 µM | SNB-75 44.9 µM | HCC 2998 > 100 µM | OVCAR-4 > 100 µM | SNB-19 > 100 µM | NCI-H226 > 100 µM | SF-295 > 100 µM | HOP-62 > 100 µM

CCOC(=O)C1Sc2ccccc2N=C1C (configuration not stated)
inactive: HL-60 > 100 µM | SF-539 > 100 µM | ACHN > 100 µM | RXF 393 > 100 µM | EKVX > 100 µM | LOX IMVI > 100 µM | NCI-H522 > 100 µM | SNB-75 > 100 µM | HCC 2998 > 100 µM | OVCAR-4 > 100 µM | SNB-19 > 100 µM | NCI-H226 > 100 µM | SF-295 > 100 µM | HOP-62 > 100 µM

COC(=O)C(=O)C(C(=O)OC)C(=O)C(=O)Nc1cc(Cl)c(C)cc1S(=O)(=O)O (configuration not stated)
inactive: UACC-62 > 100 µM | HL-60 > 100 µM | SF-539 > 100 µM | ACHN > 100 µM | RXF 393 > 100 µM | EKVX > 100 µM | LOX IMVI > 100 µM | NCI-H522 > 100 µM | SNB-75 74.3 µM | HCC 2998 > 100 µM | OVCAR-4 > 100 µM | SNB-19 > 100 µM | NCI-H226 > 100 µM | SF-295 > 100 µM | HOP-62 > 100 µM

COC(=O)C12C3C4C5(C(=O)OC)C(C1C35C(=O)N(C(C)C)C(C)C)C42C(=O)N(C(C)C)C(C)C (configuration not stated)
inactive: UACC-62 > 50 µM | HL-60 > 36.3 µM | SF-539 > 50 µM | ACHN > 50 µM | RXF 393 > 50 µM | EKVX > 50 µM | LOX IMVI > 27.1 µM | NCI-H522 > 47.2 µM | SNB-75 > 35.5 µM | HCC 2998 > 50 µM | OVCAR-4 > 35.6 µM | SNB-19 > 50 µM | NCI-H226 > 50 µM | SF-295 > 50 µM | HOP-62 > 50 µM

COc1cc2c(cc1O)[C@H](C)C(c1ccccc1OC)O2 (some centres not stated)
inactive: UACC-62 3.33 µM | HL-60 2.6 µM | SF-539 5.11 µM | ACHN 4.34 µM | RXF 393 10.9 µM | EKVX 6.87 µM | LOX IMVI 4.67 µM | NCI-H522 3.01 µM | SNB-75 2.49 µM | HCC 2998 12.1 µM | OVCAR-4 8.32 µM | SNB-19 3.98 µM | NCI-H226 22.4 µM | SF-295 3.2 µM

CCCN(CCC)C(=O)Cc1c2n(c3ccccc13)CCCc1ccccc1-2
inactive: UACC-62 11 µM | HL-60 15.4 µM | SF-539 14.9 µM | ACHN 12.6 µM | RXF 393 10.4 µM | EKVX 15.1 µM | LOX IMVI 15.4 µM | NCI-H522 12.6 µM | SNB-75 11.9 µM | HCC 2998 13.2 µM | OVCAR-4 13.3 µM | SNB-19 14.6 µM | NCI-H226 15.1 µM | SF-295 10.6 µM | HOP-62 16.4 µM

O=c1c(O)c(-c2ccc(O)c(O)c2)oc2cc(O)cc(O)c12 [QUERCETIN]
inactive: UACC-62 31.2 µM | HL-60 21 µM | SF-539 47.5 µM | ACHN > 100 µM | RXF 393 55.7 µM | EKVX 41.2 µM | LOX IMVI 18.9 µM | NCI-H522 84.3 µM | SNB-75 49 µM | HCC 2998 > 100 µM | OVCAR-4 > 100 µM | SNB-19 61.2 µM | SF-295 50.7 µM | HOP-62 46.1 µM
